Key:
[1] = target: T1, Muscarinic acetylcholine receptor M1 (Homo sapiens) (UniProt P11229); assay: Agonist activity at human muscarinic M1 receptor expressed in CHO-K1 cells assessed as increase of acetylcholine-induced calcium flux by FLIPR assay relative to acetylcholine; assay type: functional, cell-based
T1 sequence (whole entry): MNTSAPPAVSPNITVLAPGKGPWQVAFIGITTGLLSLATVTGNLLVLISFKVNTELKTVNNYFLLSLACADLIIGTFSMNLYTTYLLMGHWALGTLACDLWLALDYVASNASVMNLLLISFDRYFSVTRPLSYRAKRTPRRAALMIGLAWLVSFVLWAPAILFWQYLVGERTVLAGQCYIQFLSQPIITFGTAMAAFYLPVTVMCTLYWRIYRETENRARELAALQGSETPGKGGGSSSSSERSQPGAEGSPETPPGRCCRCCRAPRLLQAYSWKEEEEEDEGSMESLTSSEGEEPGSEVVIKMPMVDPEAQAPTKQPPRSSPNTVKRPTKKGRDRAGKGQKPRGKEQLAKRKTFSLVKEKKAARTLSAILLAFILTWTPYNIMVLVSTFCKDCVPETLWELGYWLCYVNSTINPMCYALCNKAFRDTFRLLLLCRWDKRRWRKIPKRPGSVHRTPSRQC

[2] = target: T2, Muscarinic acetylcholine receptor M1 (Homo sapiens, UniProt P11229)
T2 sequence (P11229 whole entry): T1 sequence (whole entry)

[3] = target: T3, Muscarinic acetylcholine receptor M5 (Homo sapiens) (UniProt P08912); assay: Agonist activity at human muscarinic M5 receptor expressed in BHK-21 cells assessed as increase of acetylcholine-induced calcium flux at 10 uM by FLIPR assay relative to acetylcholine; assay type: functional, cell-based
T3 sequence (whole entry): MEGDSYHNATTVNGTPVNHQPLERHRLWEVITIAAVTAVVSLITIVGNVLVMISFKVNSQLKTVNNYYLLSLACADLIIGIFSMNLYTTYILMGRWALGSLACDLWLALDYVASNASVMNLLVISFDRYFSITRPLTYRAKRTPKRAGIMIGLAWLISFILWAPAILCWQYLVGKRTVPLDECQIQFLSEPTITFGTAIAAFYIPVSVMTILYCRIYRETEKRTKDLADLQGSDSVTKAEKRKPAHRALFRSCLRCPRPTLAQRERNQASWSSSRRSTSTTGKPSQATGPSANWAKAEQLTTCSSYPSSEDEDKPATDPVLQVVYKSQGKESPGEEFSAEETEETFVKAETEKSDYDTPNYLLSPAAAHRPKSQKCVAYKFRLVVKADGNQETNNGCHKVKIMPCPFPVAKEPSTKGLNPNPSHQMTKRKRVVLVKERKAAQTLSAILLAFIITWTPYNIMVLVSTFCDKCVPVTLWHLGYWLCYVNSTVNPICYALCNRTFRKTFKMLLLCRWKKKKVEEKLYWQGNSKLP

[4] = target: T4, Muscarinic acetylcholine receptor M2 (Homo sapiens) (UniProt P08172); assay: Agonist activity at human muscarinic M2 receptor expressed in CHO-K1 cells coexpressing Galpha16 subunit assessed as increase of acetylcholine-induced calcium flux at 10 uM by FLIPR assay relative to acetylcholine; assay type: functional, cell-based
T4 sequence (whole entry): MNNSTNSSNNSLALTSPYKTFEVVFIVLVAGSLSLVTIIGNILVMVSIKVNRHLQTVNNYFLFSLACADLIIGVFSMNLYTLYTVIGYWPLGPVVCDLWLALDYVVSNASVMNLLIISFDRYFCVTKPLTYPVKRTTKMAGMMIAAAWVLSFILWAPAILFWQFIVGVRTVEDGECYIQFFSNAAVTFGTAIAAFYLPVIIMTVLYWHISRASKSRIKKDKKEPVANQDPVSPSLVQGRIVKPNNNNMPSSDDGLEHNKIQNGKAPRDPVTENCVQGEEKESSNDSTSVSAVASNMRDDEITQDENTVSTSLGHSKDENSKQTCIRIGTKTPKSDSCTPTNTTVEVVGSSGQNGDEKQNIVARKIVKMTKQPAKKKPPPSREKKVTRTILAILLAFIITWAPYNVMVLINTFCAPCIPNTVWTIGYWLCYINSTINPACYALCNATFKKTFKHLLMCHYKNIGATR

[5] = target: T5, Muscarinic acetylcholine receptor M4 (Homo sapiens) (UniProt P08173); assay: Agonist activity at human muscarinic M4 receptor expressed in BHK-21 cells coexpressing Galpha16 subunit assessed as increase of acetylcholine-induced calcium flux at 10 uM by FLIPR assay relative to acetylcholine; assay type: functional, cell-based
T5 sequence (whole entry): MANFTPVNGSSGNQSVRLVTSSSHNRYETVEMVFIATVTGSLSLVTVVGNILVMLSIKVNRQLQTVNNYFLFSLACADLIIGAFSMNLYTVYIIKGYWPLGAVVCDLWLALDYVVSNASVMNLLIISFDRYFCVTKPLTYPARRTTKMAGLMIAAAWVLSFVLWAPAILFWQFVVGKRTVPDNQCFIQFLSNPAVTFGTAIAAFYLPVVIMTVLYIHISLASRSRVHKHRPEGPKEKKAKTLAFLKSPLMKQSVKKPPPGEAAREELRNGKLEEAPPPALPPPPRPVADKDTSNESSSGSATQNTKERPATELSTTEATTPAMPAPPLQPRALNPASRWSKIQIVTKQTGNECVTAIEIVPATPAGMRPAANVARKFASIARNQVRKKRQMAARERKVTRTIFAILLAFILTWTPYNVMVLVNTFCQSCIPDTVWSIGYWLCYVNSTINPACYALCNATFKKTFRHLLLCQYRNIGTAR

[6] = target: T6, Muscarinic acetylcholine receptor M3 (Homo sapiens, UniProt P20309); assay: Agonist activity at human muscarinic M3 receptor expressed in BHK-21 cells assessed as increase of acetylcholine-induced calcium flux at 10 uM by FLIPR assay relative to acetylcholine; assay type: functional, cell-based
Target sequence in this assay (P20309 whole entry, looked up): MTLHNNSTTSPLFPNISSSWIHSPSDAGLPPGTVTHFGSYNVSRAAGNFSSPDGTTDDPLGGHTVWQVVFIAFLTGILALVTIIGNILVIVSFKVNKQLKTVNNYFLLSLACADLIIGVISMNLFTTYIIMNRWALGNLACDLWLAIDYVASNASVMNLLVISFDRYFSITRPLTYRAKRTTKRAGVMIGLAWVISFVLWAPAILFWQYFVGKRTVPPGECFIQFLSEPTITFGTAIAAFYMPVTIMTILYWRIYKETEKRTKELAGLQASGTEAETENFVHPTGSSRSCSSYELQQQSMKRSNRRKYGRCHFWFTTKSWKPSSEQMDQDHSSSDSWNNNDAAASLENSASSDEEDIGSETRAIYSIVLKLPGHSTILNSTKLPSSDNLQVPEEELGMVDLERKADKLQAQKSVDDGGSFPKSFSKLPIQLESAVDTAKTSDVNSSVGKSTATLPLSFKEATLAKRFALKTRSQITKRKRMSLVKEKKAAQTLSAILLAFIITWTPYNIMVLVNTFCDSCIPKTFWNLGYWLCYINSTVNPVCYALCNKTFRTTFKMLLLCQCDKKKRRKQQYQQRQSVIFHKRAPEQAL

[7] = target: T7, Muscarinic acetylcholine receptor M4 (Homo sapiens, UniProt P08173); assay: Agonist activity at human muscarinic M4 receptor expressed in BHK-21 cells coexpressing Galpha16 subunit assessed as increase of acetylcholine-induced calcium flux by FLIPR assay; assay type: functional, cell-based
T7 sequence (P08173 whole entry): T5 sequence (whole entry)

[8] = target: T3, Muscarinic acetylcholine receptor M5 (Homo sapiens); assay: Agonist activity at human muscarinic M5 receptor expressed in BHK-21 cells assessed as increase of acetylcholine-induced calcium flux by FLIPR assay relative to acetylcholine; assay type: functional, cell-based
[9] = target: T8, Muscarinic acetylcholine receptor M5 (Homo sapiens, UniProt P08912); assay: Agonist activity at human muscarinic M5 receptor expressed in BHK-21 cells assessed as increase of acetylcholine-induced calcium flux by FLIPR assay; assay type: functional, cell-based
T8 sequence (P08912 whole entry): T3 sequence (whole entry)

[10] = target: T5, Muscarinic acetylcholine receptor M4 (Homo sapiens); assay: Agonist activity at human muscarinic M4 receptor expressed in BHK-21 cells coexpressing Galpha16 subunit assessed as increase of acetylcholine-induced calcium flux by FLIPR assay relative to acetylcholine; assay type: functional, cell-based
[11] = target: T1, Muscarinic acetylcholine receptor M1 (Homo sapiens); assay: Agonist activity at human muscarinic M1 receptor expressed in CHO-K1 cells assessed as increase of acetylcholine-induced calcium flux at 10 uM by FLIPR assay relative to acetylcholine; assay type: functional, cell-based
[12] = target: Alpha-1A adrenergic receptor (Homo sapiens, UniProt P35348); assay: Binding affinity to human adrenergic alpha1A receptor by radioligand displacement assay
[13] = target: T8, Muscarinic acetylcholine receptor M5; assay: biochemical
Description: Displacement of [3H]-4-DAMP from human muscarinic M5 receptor expressed in BHK-21 cells

[14] = target: Alpha-1B adrenergic receptor (Homo sapiens, UniProt P35368); assay: Binding affinity to human adrenergic Alpha-1B receptor by radioligand displacement assay
[15] = target: Alpha-1D adrenergic receptor (Homo sapiens, UniProt P25100); assay: Binding affinity to human adrenergic Alpha-1D receptor by radioligand displacement assay
[16] = target: 5-hydroxytryptamine receptor 2C (Homo sapiens, UniProt P28335); assay: Binding affinity to human 5HT2C receptor agonist site by radioligand displacement assay
[17] = target: T9, Muscarinic acetylcholine receptor M2 (Homo sapiens, UniProt P08172); assay: Displacement of [3H]-AFDX-384 from human muscarinic M2 receptor expressed in CHO-K1 cells; assay type: cell-based
T9 sequence (P08172 whole entry): T4 sequence (whole entry)

[18] = target: T6, Muscarinic acetylcholine receptor M3
Target sequence in this assay (P20309 whole entry): as the sequence (P20309 whole entry, looked up) above

[19] = target: T6, Muscarinic acetylcholine receptor M3; assay: Displacement of [3H]-4-DAMP from human muscarinic M3 receptor expressed in BHK-21 cells; assay type: cell-based
Target sequence in this assay (P20309 whole entry): as the sequence (P20309 whole entry, looked up) above

Alpha-1B adrenergic receptor, sequence (P35368 whole entry): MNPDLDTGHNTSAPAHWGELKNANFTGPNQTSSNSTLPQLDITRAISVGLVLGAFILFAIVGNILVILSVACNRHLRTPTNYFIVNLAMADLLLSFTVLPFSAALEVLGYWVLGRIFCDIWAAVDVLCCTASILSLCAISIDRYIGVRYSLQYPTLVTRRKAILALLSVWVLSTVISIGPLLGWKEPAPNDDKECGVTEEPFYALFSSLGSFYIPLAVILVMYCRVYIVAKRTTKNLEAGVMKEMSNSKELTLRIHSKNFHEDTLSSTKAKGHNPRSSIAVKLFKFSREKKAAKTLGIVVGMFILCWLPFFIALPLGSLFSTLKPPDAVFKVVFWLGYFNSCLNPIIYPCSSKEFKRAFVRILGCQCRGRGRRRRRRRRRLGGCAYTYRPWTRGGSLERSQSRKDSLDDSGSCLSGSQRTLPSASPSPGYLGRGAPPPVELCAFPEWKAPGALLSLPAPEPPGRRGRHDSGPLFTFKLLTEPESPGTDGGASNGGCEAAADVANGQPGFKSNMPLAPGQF
Alpha-1A adrenergic receptor, sequence (P35348 whole entry): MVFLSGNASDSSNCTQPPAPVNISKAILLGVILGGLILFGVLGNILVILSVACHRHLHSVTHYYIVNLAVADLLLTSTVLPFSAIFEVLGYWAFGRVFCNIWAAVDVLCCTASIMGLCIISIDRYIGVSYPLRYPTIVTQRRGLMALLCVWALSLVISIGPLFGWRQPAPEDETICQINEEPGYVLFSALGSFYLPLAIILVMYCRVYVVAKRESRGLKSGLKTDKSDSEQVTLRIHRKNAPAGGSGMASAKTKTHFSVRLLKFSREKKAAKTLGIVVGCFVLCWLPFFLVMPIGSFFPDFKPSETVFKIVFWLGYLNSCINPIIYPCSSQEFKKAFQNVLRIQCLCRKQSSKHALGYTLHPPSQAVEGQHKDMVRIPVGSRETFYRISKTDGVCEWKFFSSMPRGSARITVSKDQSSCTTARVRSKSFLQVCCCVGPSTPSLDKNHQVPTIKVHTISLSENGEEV
Alpha-1D adrenergic receptor, sequence (P25100 whole entry): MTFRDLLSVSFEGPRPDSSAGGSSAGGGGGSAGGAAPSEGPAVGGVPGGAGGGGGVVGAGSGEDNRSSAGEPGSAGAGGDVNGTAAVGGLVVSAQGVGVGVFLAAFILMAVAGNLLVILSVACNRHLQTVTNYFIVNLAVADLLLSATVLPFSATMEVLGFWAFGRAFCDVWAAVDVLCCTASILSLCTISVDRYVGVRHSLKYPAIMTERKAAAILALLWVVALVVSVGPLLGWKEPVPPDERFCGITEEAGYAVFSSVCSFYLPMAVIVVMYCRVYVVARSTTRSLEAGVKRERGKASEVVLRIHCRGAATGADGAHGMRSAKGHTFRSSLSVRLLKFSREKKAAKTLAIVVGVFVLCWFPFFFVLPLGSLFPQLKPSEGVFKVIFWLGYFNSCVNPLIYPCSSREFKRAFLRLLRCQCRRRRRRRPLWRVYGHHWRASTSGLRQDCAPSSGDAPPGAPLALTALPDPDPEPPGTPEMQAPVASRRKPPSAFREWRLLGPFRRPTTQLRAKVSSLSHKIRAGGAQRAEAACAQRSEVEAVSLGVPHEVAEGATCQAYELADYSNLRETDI
5-hydroxytryptamine receptor 2C, sequence (P28335 whole entry): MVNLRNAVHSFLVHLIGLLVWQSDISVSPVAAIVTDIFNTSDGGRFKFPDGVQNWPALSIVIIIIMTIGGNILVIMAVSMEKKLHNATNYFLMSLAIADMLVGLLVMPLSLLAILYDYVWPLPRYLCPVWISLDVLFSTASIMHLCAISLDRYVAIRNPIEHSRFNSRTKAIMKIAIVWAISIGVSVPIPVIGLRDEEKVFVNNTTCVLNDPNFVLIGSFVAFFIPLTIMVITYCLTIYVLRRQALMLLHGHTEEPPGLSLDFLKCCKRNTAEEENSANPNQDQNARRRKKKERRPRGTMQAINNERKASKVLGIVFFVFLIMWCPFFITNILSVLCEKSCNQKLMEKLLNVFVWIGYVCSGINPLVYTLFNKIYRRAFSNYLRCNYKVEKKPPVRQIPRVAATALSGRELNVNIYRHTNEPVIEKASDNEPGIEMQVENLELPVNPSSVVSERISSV

Row | SMILES | Emax [1] | EC50 [2] | further results
1 | CCC(=O)NC1CCN(CCCN2C(=O)CCc3cc(F)ccc32)CC1 | 83% | 9 nM | –
2 | COc1cccc(CC(=O)NC2CCN(CCCN3C(=O)COc4ccccc43)CC2)c1 | 86% | 130 nM | Emax [3]: 6%; Emax [4]: 0%; Emax [5]: 3%; Emax [6]: 0%
3 | O=C(CCc1ccccc1)NC1CCN(CCCN2C(=O)COc3ccccc32)CC1 | 60% | 970 nM | –
4 | CCC(=O)NC1CCN(CCCN2C(=O)CCc3cccc(F)c32)CC1 | 78% | 310 nM | –
5 | CC(=O)NC1CCN(CCCN2C(=O)COc3ccccc32)CC1 | 74% | 180 nM | –
6 | O=C(Cc1ccccc1)NC1CCN(CCCN2C(=O)CCc3ccc(F)cc32)CC1 | 86% | 51 nM | –
7 | COc1ccc(CC(=O)NC2CCN(CCCN3C(=O)CCc4cc(F)c(F)cc43)CC2)cc1OC | 91% | 13 nM | EC50 [7]: 300 nM; Emax [8]: 52%; EC50 [9]: 1200 nM; Emax [4]: 2%; Emax [10]: 48%; Emax [6]: 7%
8 | O=C(NC1CCN(CCCN2C(=O)COc3ccccc32)CC1)c1ccccc1 | – | – | Emax [11]: 8%
9 | O=C(Cc1ccccc1)NC1CCN(CCCN2C(=O)CCc3cc(F)ccc32)CC1 | 79% | 49 nM | –
10 | O=C(Cc1ccccc1)NC1CCN(CCCN2C(=O)CSc3ccccc32)CC1 | 79% | 100 nM | –
11 | O=C(Cc1ccccc1)NC1CCN(CCCN2C(=O)CCc3c(F)cccc32)CC1 | 77% | 150 nM | –
12 | Cc1ccccc1CN1CCC(N2CCC(n3c(=O)[nH]c4ccccc43)CC2)CC1 | 86% | – | Ki [12]: 11 nM; Emax [3]: 5%; Ki [13]: 940 nM; Ki [14]: 19 nM; Ki [15]: 290 nM; Ki [16]: 85 nM; Emax [5]: 38%; Ki [17]: 320 nM; Emax [6]: 1%
13 | CCCCCCOc1nsnc1C1=CCCN(C)C1 [XANOMELINE] | 89% | – | Emax [8]: 60%; EC50 [18]: 120 nM; Emax [4]: 9%; Emax [10]: 72%; Ki [19]: 13 nM
14 | CC(C)CC(=O)NC1CCN(CCCN2C(=O)COc3ccccc32)CC1 | – | – | Emax [11]: 21%
15 | O=C(Cc1ccccc1)NC1CCN(CCCN2C(=O)CCc3cc(F)c(F)cc32)CC1 | 89% | 15 nM | –
16 | CCC(=O)NC1CCN(CCCN2C(=O)COc3ccccc32)CC1 | 78% | 27 nM | –
17 | CCC(=O)NC1CCN(CCCN2C(=O)CCc3c(F)cccc32)CC1 | 90% | 19 nM | –
